What follows are compounds tested against T1, h-11βHSD1 (Homo sapiens, UniProt P28845) (assay: 11βHSD1 enzyme assay (scintillation proximity assay, 3H-cortisone to 3H-cortisol)). Settings: extract of yeast transformed with h-11βHSD1; 120 nM 3H-cortisone, 4 mM β-NADPH, 60 min at 30° C., SPA.
T1 construct: made in house
Type: biochemical
Experimental: Pharmacological Methods 11βHSD1 Enzyme Assay Materials
^3H-cortisone and anti-rabbit Ig coated scintillation proximity assay (SPA) beads were purchased from Amersham Pharmacia Biotech, β-NADPH was from Sigma and rabbit anti-cortisol antibodies were from Fitzgerald. An extract of yeast transformed with h-11βHSD1 (Hult et al., FEBS Lett, 441, 25 (1998)) was used as the source of enzyme. The test compounds were dissolved in DMSO (10 mM). All dilutions were performed in a buffer containing 50 mM TRIS-HCl (Sigma Chemical Co), 4 mM EDTA (Sigma Chemical Co), 0.1% BSA (Sigma Chemical Co), 0.01% Tween-20 (Sigma Chemical Co) and 0.005% bacitracin (Novo Nordisk A/S), pH=7.4. Optiplate 96 wells plates were supplied by Packard. The amount of ^3H-cortisol bound to the SPA beads was measured on TopCount NXT, Packard.
h-11βHSD1, 120 nM ^3H-cortisone, 4 mM β-NADPH, antibody (1:200), serial dilutions of test compound and SPA particles (2 mg/well) were added to the wells. The reaction was initiated by mixing the different components and was allowed to proceed under shaking for 60 min at 30° C. The reaction was stopped be the addition of 10 fold excess of a stopping buffer containing 500 μM carbenoxolone and 1 μM cortisone. Data was analysed using GraphPad Prism software.

T1 sequence (P28845 whole entry): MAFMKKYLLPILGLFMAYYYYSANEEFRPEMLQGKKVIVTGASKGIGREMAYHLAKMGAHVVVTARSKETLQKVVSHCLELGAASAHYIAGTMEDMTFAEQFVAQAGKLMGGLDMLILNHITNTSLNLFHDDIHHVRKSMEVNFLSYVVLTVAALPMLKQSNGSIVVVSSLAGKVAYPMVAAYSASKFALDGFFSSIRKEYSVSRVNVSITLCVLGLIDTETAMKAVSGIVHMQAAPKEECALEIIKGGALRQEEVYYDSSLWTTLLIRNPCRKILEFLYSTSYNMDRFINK

`O=C(NC1C2CC3CC(C2)CC1C3)c1ccc(OC2CCC(NC(=O)C3CC3)CC2)cc1` (mixture of isomers) [Example 2c, cis/trans-4-[4-(Cyclopropanecarbonyl-amino)-cyclohexyl-oxy]-N-adamantan-2-yl-benzamide] and `O=C(NC1C2CC3CC(C2)CC1C3)c1ccc(O[C@H]2CC[C@@H](NC(=O)C3CC3)CC2)cc1` (stereo partly drawn) [Example 5c, Cis-N-Adamantan-2-yl-4-[4-(cyclopropanecarbonyl-amino)-cyclohexyloxy]-benzamide] are within 1.5-fold of each other in IC50: 118 nM for the first, 158 nM for the second.

Compared with `O=C(NC1C2CC3CC(C2)CC1C3)c1ccc(OC2CCC(C(=O)O)CC2)cc1` (mixture of isomers) [Example 4a, Cis/trans 4-[4-adamantan-2-ylcarbamoyl)-phenoxy]-cyclohexanecarboxylic acid], `O=C(NC1C2CC3CC(C2)CC1C3)c1ccc(OC2CCC(O)CC2)cc1` (stereo not shown) [Example 1d, N-Adamantan-2-yl-4-(4-hydroxy-cyclohexyloxy)-benzamide] is 9-fold lower in IC50: 678 nM for the first, 75 nM for the second. The second is the more potent here.

First: CC(C)(C)OC(=O)N1C[C@@H]2CC1CN2c1ccc(C(=O)N2CC3CCC(CC3)C2)cc1 (stereo in doubt) [Example 1h, (1S,4S)-5-[4-(3-Aza-bicyclo[3.2.2]nonane-3-carbonyl)-phenyl]-2,5-diaza-bicyclo[2.2.1]heptane-2-carboxylic acid tert-butyl ester]
Second: O=C(O)C1CCC(Oc2ccc(C(=O)N3CC4CCC(CC4)C3)cc2)C1 (stereo not shown) [Example 7a, 3-[4-(3-Aza-bicyclo[3.2.2]-nonane-3-carbonyl)-phenoxy]-cyclopentane-carboxylic acid]
The IC50 of the first is 3.6-fold lower: 389 nM for the first, 1400 nM for the second. The first is the more potent here.

Going from `CCOC(=O)C1CCC(Oc2ccc(C(=O)N3CC4(C)CC3CC(C)(C)C4)cc2)CC1` (stereo not shown) [Example 1a, 4-[4-(1,3,3-Trimethyl-6-aza-bicyclo[3.2.1]octane-6-carbonyl)-phenoxy]-cyclo-hexanecarboxylic acid ethyl ester] to `CC1(C)CC2CC(C)(CN2C(=O)c2ccc(O[C@H]3CC[C@@H](C(=O)O)CC3)cc2)C1` (stereo partly drawn) [Example 5a, Cis-4-[4-(1,3,3-trimethyl-6-aza-bicyclo [3.2.1]octane-6-carbonyl)-phenoxy]-cyclo-hexanecarboxylic acid], the IC50 rises from 130 nM to 588 nM (4.5-fold).

`O=C(NC1C2CC3CC(C2)CC1C3)c1ccc(OC2CCN(C(=O)C3CC3)CC2)cc1` (stereo not shown) [Example 1b, 4-(1-Cyclopropanecarbonyl-piperidin-4-yloxy)-N-ada-mantan-2-yl-benzamide] and `CC(C)CC(=O)N1CCC(Oc2ccc(C(=O)NC3C4CC5CC(C4)CC3C5)cc2)CC1` (stereo not shown) [Example 2b, 4-[1-(3-Methyl-butyryl)-piperidin-4-yloxy]-N-ada-mantan-2-yl-benzamide] are within 1.5-fold of each other in IC50: 205 nM for the first, 284 nM for the second.

`Cc1c[nH]c(SCC2CCC(Oc3ccc(C(=O)NC4C5CC6CC(C5)CC4C6)cc3)CC2)n1` (stereo not shown) [Example 1e, N-Adamantan-2-yl-4-[4-(4-methyl-1H-imidazol-2-yl-sulfanylmethyl)-cyclo-hexyloxy]-benzamide] and `O=C(NC1C2CC3CC(C2)CC1C3)c1ccc(OC2CCC(COn3cccn3)CC2)cc1` (stereo not shown) [Example 2e, 4-[4-(Pyrazol-1-yl-oxy-methyl)-cyclohexyloxy]-N-adamantan-2-yl-benzamide] are the same in IC50: 190 nM for the first, 190 nM for the second.

Compared with `O=C(NC1C2CC3CC(C2)CC1C3)c1ccc(OCC2CCC(O)CC2)cc1` (stereo not shown) [Example 1f, 4-(4-Hydroxy-cyclohexyl-methoxy)-N-adamantan-2-yl-benzamide], `O=C(O)c1ccc(OCC2CCC(Oc3ccc(C(=O)NC4C5CC6CC(C5)CC4C6)cc3)CC2)cc1` (stereo not shown) [Example 3e, 4-{4-[4-(Adamantan-2-yl-carbamoyl)-phenoxy]-cyclo-hexylmethoxy}-benzoic acid] is 1.6-fold lower in IC50: 465 nM for the first, 300 nM for the second. The second is the more potent here.

`O=C(O)C1CCC(Oc2ccc(C(=O)N3CC4CCC(CC4)C3)cc2)CC1` (stereo not shown) [Example 2a, 4-[4-(3-Aza-bicyclo[3.2.2]-nonane-3-carbonyl)-phen-oxy]-cyclohexane carbox-ylic acid] and `CC(C)CC(=O)N1CCC(Oc2ccc(C(=O)N3CC4CCC(CC4)C3)cc2)CC1` [Example 3b, 1-{4-[4-(3-Aza-bicyclo-[3.2.2]nonane-3-carbonyl)-phenoxy]-piperidin-1-yl}-3-methyl-butan-1-one] are within 1.5-fold of each other in IC50: 1450 nM for the first, 1400 nM for the second.

Going from `O=C(NC1C2CC3CC(C2)CC1C3)c1ccc(OC2CCC(On3cccn3)CC2)cc1` (stereo not shown) [Example 2d, 4-[4-(Pyrazol-1-yloxy)-cyclohexyloxy]-N-adaman-tan-2-yl-benzamide] to `O=C(NC1C2CC3CC(C2)CC1C3)c1ccc(O[C@H]2CC[C@@H](NS(=O)(=O)c3ccccn3)CC2)cc1` (stereo partly drawn) [Example 3c, Cis-N-Adamantan-2-yl-4-[4-(pyridine-2-sulfonylamino)-cyclohexyloxy]-benzamide], the IC50 falls from 180 nM to 96 nM (1.9-fold).

Going from `Cn1cnc(S(=O)(=O)N2CCC(COc3ccc(C(=O)N4CCCC5CCCCC54)cc3)CC2)c1` (stereo not shown) [Example 2f, {4-[1-(1-Methyl-1H-imidazole-4-sulfonyl)-piperidin-4-yl-methoxy]-phenyl}-(octahydro-quinolin-1-yl)-methanone] to `CCS(=O)(=O)N1CCC(COc2ccc(C(=O)N3CCCC4CCCCC43)cc2)CC1` (stereo not shown) [Example 3f, [4-(1-Ethanesulfonyl-piperidin-4-yl-methoxy)-phenyl]-(octahydro-quinolin-1-yl)-methanone], the IC50 rises from 134 nM to 271 nM (2-fold). The first is the more potent here.

First: O=C(c1ccc(N2[C@@H]3CC[C@H]2CC(Oc2ccccn2)C3)cc1)N1CCCC2CCCCC21 (stereo partly drawn) [Example 2h, (Octahydro-quinolin-1-yl)-{4-[(1S,5R)-3-(pyridin-2-yloxy)-8-aza-bicyclo[3.2.1]oct-8-yl]-phenyl}-methanone]
Second: O=C(c1ccc(O[C@H]2CC[C@@H](NS(=O)(=O)c3ccccn3)CC2)cc1)N1CCCC2CCCCC21 (stereo partly drawn) [Example 4c, Cis-Pyridine-2-sulfonic acid {4-[4-(octahydro-quinoline-1-carbonyl)-phenoxy]-cyclo-hexyl}-amide]
The IC50 of the first is 7-fold higher: 359 nM for the first, 51 nM for the second. The second is the more potent here.

Compared with `O=C(O)C1CCC(Oc2ccc(C(=O)N3CCCC4CCCCC43)cc2)CC1` (stereo not shown) [Example 3a, 4-[4-(Octahydro-quinoline-1-carbonyl)-phenoxy]-cyclohexanecarboxylic acid], `O=C(N[C@H]1CC[C@@H](Oc2ccc(C(=O)N3CCCC4CCCCC43)cc2)CC1)C1CC1` (stereo partly drawn) [Example 6c, Cis-Cyclopropanecarboxylic acid {4-[4-(octahydro-quino-line-1-carbonyl)-phenoxy]-cyclohexyl}-amide] is 3.4-fold lower in IC50: 405 nM for the first, 120 nM for the second. The second is the more potent here.

`Cc1ccc(S(=O)(=O)NC(=O)N2CCC(Oc3ccc(C(=O)N4CC5CCC(CC5)C4)cc3)C2)cc1` (stereo not shown) [Example 3g, N-{3-[4-(3-Aza-bicyclo-[3.2.2]nonane-3-carbonyl)-phenoxy]-pyrrolidine-1-carbonyl}-4-methyl-benzenesulfonamide] and `O=C(C1CC1)N1CCC(Oc2ccc(C(=O)N3CC4CCCC3C4)cc2)CC1` (stereo not shown) [Example 4b, (6-Aza-bicyclo[3.2.1]oct-6-yl)-[4-(1-cyclopropane-carbonyl-piperidin-4-yloxy)-phenyl]-methanone] are within 1.5-fold of each other in IC50: 2820 nM for the first, 2310 nM for the second.

Going from `O=C(NC1C2CC3CC(C2)CC1C3)c1ccc(N2[C@@H]3CC[C@H]2CC(Oc2ccccn2)C3)cc1` (stereo partly drawn) [Example 3h, 4-[(1S,5R)-3-(Pyridin-2-yloxy)-8-aza-bicyclo[3.2.1]oct-8-yl]-N-adamantan-2-yl-benzamide] to `C=CCOC(=O)c1ccc(OCC2CCC(Oc3ccc(C(=O)NC4C5CC6CC(C5)CC4C6)cc3)CC2)cc1` (stereo not shown) [Example 4e, 4-{4-[4-(Adamantan-2-yl-carbamoyl)-phenoxy]-cyclo-hexylmethoxy}-benzoic acid allyl ester], the IC50 falls from 976 nM to 482 nM (2-fold).

Going from `CN(C(=O)c1ccc(OCC2CCN(S(=O)(=O)c3ccccn3)CC2)cc1)C1C2CC3CC1CC(O)(C3)C2` (stereo not shown) [Example 4f, N-(5-Hydroxy-adamantan-2-yl)-N-methyl-4-[1-(pyridine-2-sulfonyl)-piperidin-4-yl-methoxy]-benzamide] to `CN(C(=O)c1ccc(OCC2CCN(S(=O)(=O)c3cn(C)cn3)CC2)cc1)C1C2CC3CC1CC(O)(C3)C2` (stereo not shown) [Example 6f, N-(5-Hydroxy-adamantan-2-yl)-N-methyl-4-[1-(1-methyl-1H-imidazole-4-sulfonyl)-piperidin-4-ylmethoxy]-benzamide], the IC50 rises from 1360 nM to 2270 nM (1.7-fold). The first is the more potent here.

`CC(C)CC(=O)N1CCC(Oc2ccc(C(=O)N3CC4CCCC3C4)cc2)CC1` (stereo not shown) [Example 5b, 1-{4-[4-(6-Aza-bicyclo[3.2.1]-octane-6-carbonyl)-phenoxy]-piperidin-1-yl}-3-methyl-butan-1-one] and `CC1(C)CC2CC(C)(CN2C(=O)c2ccc(O[C@H]3CC[C@H](C(=O)O)CC3)cc2)C1` (stereo partly drawn) [Example 6a, Trans-4-{4-(1,3,3-trimethyl-6-aza-bicyclo [3.2.1]oct-ane6-carbonyl)-phenoxy]-cyclo-hexanecarboxylic acid] are within 1.5-fold of each other in IC50: 1300 nM for the first, 1200 nM for the second.

Going from `CC(C)NC(=O)N1CCC(COc2ccc(C(=O)N(C)C3C4CC5CC3CC(O)(C5)C4)cc2)CC1` (stereo not shown) [Example 5f, 4-{4-[(5-Hydroxy-adamantan-2-yl)-methyl-carbamoyl]-phenoxy-methyl}-piperidine-1-carboxylic acid isopropyl-amide] to `CN(C(=O)c1ccc(OC2CCC(NS(=O)(=O)c3ccccn3)CC2)cc1)C1C2CC3CC1CC(O)(C3)C2` (stereo not shown) [Example 7c, N-(5-Hydroxy-adamantan-2-yl)-N-methyl-4-[4-(pyridine-2-sulfonylamino)-cyclohexyl-oxy]-benzamide], the IC50 falls from 1800 nM to 1120 nM (1.6-fold).

Reference: patent US8053447B2, “11β-hydroxysteroid dehydrogenase type 1 active compounds” (High Point Pharmaceuticals, LLC, priority 2006, dated 2011)
